From patent US7741488B2, “Tetrahydropyridothiophenes as antiproliferative agents for the treatment of cancer” (4SC AG, priority 2005, dated 2010)

Experiments:
[1] = tested on: RKO (RKOp27) human colon adenocarcinoma cells; experiment: Alamar Blue cell viability assay, anti-proliferative/cytotoxic activity on proliferating (uninduced) RKO p27 cells; type: cell-based; details: RKOp27, 72 h, proliferating cells without inducer Ponasterone A
Protocol: The anti-proliferative/cytotoxic activity of the compounds described herein, can be tested on subclones of RKO (RKOp27) human colon adenocarcinoma cells (Schmidt et al., Oncogene 19, 2423-2429; 2000) using the Alamar Blue cell viability assay (described in O'Brien et al. Eur J Biochem 267, 5421-5426, 2000). The compounds are dissolved as 20 mM solutions in dimethylsulfoxide (DMSO) and subsequently diluted in semi-logarithmic steps. DMSO dilutions are further diluted 1:100 into Dulbecco's modified Eagle's medium (DMEM) containing 10% fetal calf serum to a final concentration twice as much as the final concentration in the test. RKO subclones are seeded into 96 well flat bottom plates at a density of 4000 cells per well in a volume of 50 μl per well. 24 hours after seeding the 50 μl each of the compound dilutions in DMEM medium are added into each well of the 96 Well plate. Each compound dilution is tested as quadruplicates. Wells containing untreated control cells are filled with 50 μl DMEM medium containing 1% DMSO. The cells are then incubated with the substances for 72 hours at 37° C. in a humidified atmosphere containing 5% carbon dioxide. To determine the viability of the cells, 10 μl of an Alamar Blue solution (Biosource) are added and the fluorescence is measured at an extinction of 544 nm and an emission of 590 nm. For the calculation of the cell viability the emission value from untreated cells is set as 100% viability and the emission rates of treated cells are set in relation to the values of untreated cells. Viabilities are expressed as % values.
The corresponding IC50 values of the compounds for anti-proliferative/cytotoxic activity are determined from the concentration-effect curves.
Representative IC50 values for anti-proliferation/cytotoxicity determined in the mentioned assay follow from the following table A, in which the numbers of the compound correspond to the numbers of the examples.

[2] = tested on: RKOp27 colon adenocarcinoma cells arrested by expression of ectopic p27Kip1; experiment: Alamar Blue cell viability assay on RKO p27 cells arrested by Ponasterone A induced p27Kip1 (cell cycle specific mode of action); type: cell-based; details: Homo sapiens, 72 hours, cells arrested by p27Kip1 induced with 10 μM Ponasterone A
Protocol: To determine the cell cycle specific mode of action, subclones of RKO colon adenocarcinoma cells (RKOp27 or RKOp21 as described by Schmidt et al. in Oncogene 19, 2423-2429; 2000) are seeded into 96 well flat bottom plates at a density of 16000 cells per well in a volume of 50 μl per well in DMEM growth medium with 10% FCS containing 10 μM Ponasterone A. 24 hours after seeding the 50 μl each of the compound dilutions in DMEM medium are added into each well of the 96 Well plate. Each compound dilution is tested as quadruplicates. Wells containing untreated control cells are filled with 50 μl DMEM medium containing 1% DMSO. The cells are then incubated with the substances for 72 hours at 37° C. in a humidified atmosphere containing 5% carbon dioxide. To determine the viability of the cells, 10 μl of an Alamar Blue solution (Biosource) are added and the fluorescence was measured at an extinction of 544 nm and an emission of 590 nm. For the calculation of the cell viability the emission value from untreated cells is set as 100% viability and the emission rates of treated cells are set in relation to the values of untreated cells. Viabilities are expressed as % values. Viability is compared of proliferating cells grown in the absence of the inducer Ponasterone A, versus viability of cells arrested by the expression of ectopic p27Kip1 induced by Ponasterone A.

| SMILES | IC50 [1] | IC50 [2] |
| --- | --- | --- |
| COc1ccccc1CCC(=O)Nc1sc2c(c1C#N)CCN(C(=O)OCc1ccncc1)C2 [Example 28, 3-Cyano-2-[3-(2-methoxy-phenyl)-propanoylamino]-4,7-dihydro-5H-thieno[2,3-c]pyridine-6-carboxylic acid pyridin-4-ylmethyl ester] | ≤ 300 nM | > 100000 nM |
| COc1cccc(CCC(=O)Nc2sc3c(c2C#N)CCN(C(=O)OCc2ccccn2)C3)c1 [Example 29, 3-Cyano-2-[3-(3-methoxy-phenyl)-propanoylamino]-4,7-dihydro-5H-thieno[2,3-c]pyridine-6-carboxylic acid pyridin-2-ylmethyl ester] | ≤ 300 nM | > 100000 nM |
| COc1ccccc1CCC(=O)Nc1sc2c(c1C#N)CCN(C(=O)OCC1COC(C)(C)O1)C2 (stereo not shown) [Example 30, 3-Cyano-2-[3-(2-methoxy-phenyl)-propanoylamino]-4,7-dihydro-5H-thieno[2,3-c]pyridine-6-carboxylic acid 2,2-dimethyl-[1,3]dioxolan-4-ylmethyl ester] | ≤ 300 nM | > 100000 nM |
| COc1ccccc1CCC(=O)Nc1sc2c(c1C#N)CCN(C(=O)OCC(O)CO)C2 (stereo not shown) [Example 32, 3-Cyano-2-[3-(2-methoxy-phenyl)-propanoylamino]-4,7-dihydro-5H-thieno[2,3-c]pyridine-6-carboxylic acid 2,3-dihydroxy-propyl ester] | ≤ 300 nM | > 100000 nM |
| CCOc1ccccc1CCC(=O)Nc1sc2c(c1C#N)CCN(C(=O)OCC(O)CO)C2 (stereo not shown) [Example 33, 3-Cyano-2-[3-(2-ethoxy-phenyl)-propanoylamino]-4,7-dihydro-5H-thieno[2,3-c]pyridine-6-carboxylic acid 2,3-dihydroxy-propyl ester] | ≤ 300 nM | > 100000 nM |
| COc1ccccc1CCC(=O)Nc1sc2c(c1C#N)CCN(C(=O)OCCO)C2 [Example 34, 3-Cyano-2-[3-(2-methoxy-phenyl)-propanoylamino]-4,7-dihydro-5H-thieno[2,3-c]pyridine-6-carboxylic acid 2-hydroxy-ethyl ester] | ≤ 300 nM | > 100000 nM |
| CCOc1ccccc1CCC(=O)Nc1sc2c(c1C#N)CCN(C(=O)OCCO)C2 [Example 35, 3-Cyano-2-[3-(2-ethoxy-phenyl)-propanoylamino]-4,7-dihydro-5H-thieno[2,3-c]pyridine-6-carboxylic acid 2-hydroxy-ethyl ester] | ≤ 300 nM | > 100000 nM |
| COc1cccc(CCC(=O)Nc2sc3c(c2C#N)CCN(C(=O)OCc2cccnc2)C3)c1 [Example 36, 3-Cyano-2-[3-(3-methoxy-phenyl)-propanoylamino]-4,7-dihydro-5H-thieno[2,3-c]pyridine-6-carboxylic acid pyridin-3-ylmethyl ester] | ≤ 300 nM | > 100000 nM |
| COc1cccc(CCC(=O)Nc2sc3c(c2C#N)CCN(C(=O)OCc2ccncc2)C3)c1 [Example 37, 3-Cyano-2-[3-(3-methoxy-phenyl)-propanoylamino]-4,7-dihydro-5H-thieno[2,3-c]pyridine-6-carboxylic acid pyridin-4-ylmethyl ester] | ≤ 300 nM | > 100000 nM |
| COc1cccc(CCC(=O)Nc2sc3c(c2C#N)CCN(C(=O)OCCc2ccccn2)C3)c1 [Example 38, 3-Cyano-2-[3-(3-methoxy-phenyl)-propanoylamino]-4,7-dihydro-5H-thieno[2,3-c]pyridine-6-carboxylic acid 2-pyridin-2-yl-ethyl ester] | 300 to 2000 nM | > 100000 nM |
| CCOC(=O)N1CCc2c(sc(NC(=O)CCc3ccccc3OC(F)(F)F)c2C#N)C1 [Example 39, 3-Cyano-2-[3-(2-trifluoromethoxy-phenyl)-propanoylamino]-4,7-dihydro-5H-thieno[2,3-c]pyridine-6-carboxylic acid ethyl ester] | ≤ 300 nM | > 100000 nM |
| CCOc1ccccc1CCC(=O)Nc1sc2c(c1C#N)CCN(C(=O)OCCOC)C2 [Example 40, 3-Cyano-2-[3-(2-ethoxy-phenyl)-propanoylamino]-4,7-dihydro-5H-thieno[2,3-c]pyridine-6-carboxylic acid 2-methoxy-ethyl ester] | ≤ 300 nM | > 100000 nM |
| CCOc1ccccc1CCC(=O)Nc1sc2c(c1C#N)CCN(C(=O)OCc1ccccn1)C2 [Example 41, 3-Cyano-2-[3-(2-ethoxy-phenyl)-propanoylamino]-4,7-dihydro-5H-thieno[2,3-c]pyridine-6-carboxylic acid pyridin-2-ylmethyl ester] | ≤ 300 nM | > 100000 nM |
| CCOc1ccccc1CCC(=O)Nc1sc2c(c1C#N)CCN(C(=O)OCc1cccnc1)C2 [Example 42, 3-Cyano-2-[3-(2-ethoxy-phenyl)-propanoylamino]-4,7-dihydro-5H-thieno[2,3-c]pyridine-6-carboxylic acid pyridin-3-ylmethyl ester] | ≤ 300 nM | > 100000 nM |
| CCOc1ccccc1CCC(=O)Nc1sc2c(c1C#N)CCN(C(=O)OCc1ccncc1)C2 [Example 43, 3-Cyano-2-[3-(2-ethoxy-phenyl)-propanoylamino]-4,7-dihydro-5H-thieno[2,3-c]pyridine-6-carboxylic acid pyridin-4-ylmethyl ester] | ≤ 300 nM | ≥ 40000 nM |
| CCOc1ccccc1CCC(=O)Nc1sc2c(c1C#N)CCN(C(=O)OCCc1ccccn1)C2 [Example 44, 3-Cyano-2-[3-(2-ethoxy-phenyl)-propanoylamino]-4,7-dihydro-5H-thieno[2,3-c]pyridine-6-carboxylic acid 2-pyridin-2-yl-ethyl ester] | ≤ 300 nM | > 100000 nM |
| COCCOC(=O)N1CCc2c(sc(NC(=O)CCc3cccc(OC)c3)c2C#N)C1 [Example 45, 3-Cyano-2-[3-(3-methoxy-phenyl)-propanoylamino]-4,7-dihydro-5H-thieno[2,3-c]pyridine-6-carboxylic acid 2-methoxy-ethyl ester] | ≤ 300 nM | > 100000 nM |
| COc1ccc(OC)c(CCC(=O)Nc2sc3c(c2C#N)CCN(C(=O)OCCO)C3)c1 [Example 46, 3-Cyano-2-[3-(2,5-dimethoxy-phenyl)-propanoylamino]-4,7-dihydro-5H-thieno[2,3-c]pyridine-6-carboxylic acid 2-hydroxy-ethyl ester] | 300 to 2000 nM | > 100000 nM |
| COc1ccc(C)cc1CCC(=O)Nc1sc2c(c1C#N)CCN(C(=O)OCCc1ccccn1)C2 [Example 48, 3-Cyano-2-[3-(2-methoxy-5-methyl-phenyl)-propanoylamino]-4,7-dihydro-5H-thieno[2,3-c]pyridine-6-carboxylic acid 2-pyridin-2-yl-ethyl ester] | 300 to 2000 nM | > 100000 nM |
| COc1ccc(OC)c(CCC(=O)Nc2sc3c(c2C#N)CCN(C(=O)OCc2cccnc2)C3)c1 [Example 50, 3-Cyano-2-[3-(2,5-dimethoxy-phenyl)-propanoylamino]-4,7-dihydro-5H-thieno[2,3-c]pyridine-6-carboxylic acid pyridin-3-ylmethyl ester] | 300 to 2000 nM | > 100000 nM |
| COc1ccc(C)cc1CCC(=O)Nc1sc2c(c1C#N)CCN(C(=O)OCc1cccnc1)C2 [Example 51, 3-Cyano-2-[3-(2-methoxy-5-methyl-phenyl)-propanoylamino]-4,7-dihydro-5H-thieno[2,3-c]pyridine-6-carboxylic acid pyridin-3-ylmethyl ester] | ≤ 300 nM | > 100000 nM |
| COc1ccc(C)cc1CCC(=O)Nc1sc2c(c1C#N)CCN(C(=O)OCC(O)CO)C2 (stereo not shown) [Example 52, 3-Cyano-2-[3-(2-methoxy-5-methyl-phenyl)-propanoylamino]-4,7-dihydro-5H-thieno[2,3-c]pyridine-6-carboxylic acid 2,3-dihydroxy-propyl ester] | 300 to 2000 nM | > 100000 nM |
| COc1cccc(CCC(=O)Nc2sc3c(c2C#N)CCN(C(=O)OCCO)C3)c1 [Example 53, 3-Cyano-2-[3-(3-methoxy-phenyl)-propanoylamino]-4,7-dihydro-5H-thieno[2,3-c]pyridine-6-carboxylic acid 2-hydroxy-ethyl ester] | 300 to 2000 nM | > 100000 nM |
